# Data from article PMC9788584, “Quinoxalinones as A Novel Inhibitor Scaffold for EGFR (L858R/T790M/C797S) Tyrosine Kinase: Molecular Docking, Biological Evaluations, and Computational Insights” (Molecules, 2022).
# Where two headings read alike, the source gives them in different places.
# Tests used:
# [1] = target: EGFR (L858R/T790M/C797S) TK (Homo sapiens, UniProt P00533, C797S/L858R/T790M); assay: ADP-Glo kinase assay, EGFR tyrosine kinase inhibition; assay type: biochemical
# Experimental: The inhibitory activity of each candidate compound towards EGFR triple mutations was performed using the luminescent ADP-Glo™ kinase assay (Promega Corporation, Madison, WI, USA) as previously described. […] Subsequently, 10 μL of kinase detection reagent was added and incubated at room temperature for 30 min to convert ADP into ATP. The generated luminescence by ATP in a luciferase reaction was then measured using a microplate reader (Infinite M200 microplate reader, Tecan, Männedorf, Switzerland), which corresponds to kinase activity. All assays were performed in triplicate and the obtained data were represented as the relative inhibition (%) of inhibitors compared to the control with no inhibitor as shown in Equation (1); (1) % relative inhibition=positive−negative−sample−negative/positive−negative×100
# [2] = test system: H1975 lung cancer cells expressing L858R/T790M EGFR; assay: MTT cytotoxicity assay on H1975 cells; assay type: cell-based, Human; settings: read-out: IC50, cytotoxic effect on H1975 cell viability
# Experimental: Both cells were maintained to grow at 37 °C in a humidified 5% CO2 atmosphere.
# The studied cell lines were seeded into 96-well plates (cell density of 6000 cells/well) and were incubated overnight. […] After incubation, the effect of compounds on cell viability was measured using the MTT assay as follows: 10 μL of MTT solution (5 mg/mL) was added and then incubated for 3 h. The medium was removed, followed by adding 50 μL of DMSO to dissolve the crystal formazan product. The purple solution of crystal formazan was then measured at 570 nm using a microplate spectrophotometer (Infinite M200 microplate reader, Tecan, Männedorf, Switzerland). The complete medium with 1.0% DMSO (no inhibitor) was used as a control in accordance with the reaction containing 1.0% DMSO of all wells.
# [3] = test system: Vero normal kidney cells; assay: MTT cytotoxicity assay on Vero cells; settings: read-out: IC50, cytotoxic effect on Vero cell viability, 72 h
# Experimental: (§1) Human NSCLC cell lines, H1975 (ATCC CRL-5908) and monkey’s normal kidney epithelial cell line (Vero, ATCC CCL-81) were purchased from American Type Culture Collection (ATCC, Manassas, VA, USA). H1975 cells were grown in RPMI-1640 medium supplemented with 10% FBS, 100 U/mL penicillin, and 100 µg/mL streptomycin. Vero cells were grown in Dulbecco’s modified Eagle’s minimal essential medium (DMEM; Gibco, Grand Island, NY, USA) containing 10% fetal bovine serum (FBS; Gibco), 100 U/mL penicillin, and 100 µg/mL streptomycin (Gibco). Both cells were maintained to grow at 37 °C in a humidified 5% CO2 atmosphere.
# (§2) The studied cell lines were seeded into 96-well plates (cell density of 6000 cells/well) and were incubated overnight. Then, cells were treated with screened compounds and the known drug with various concentrations (125, 62.5, 31.25, 15.63, 7.81, 3.91, 1.95, and 0.98 μM) for 72 h. After incubation, the effect of compounds on cell viability was measured using the MTT assay as follows: 10 μL of MTT solution (5 mg/mL) was added and then incubated for 3 h. The medium was removed, followed by adding 50 μL of DMSO to dissolve the crystal formazan product. The purple solution of crystal formazan was then measured at 570 nm using a microplate spectrophotometer (Infinite M200 microplate reader, Tecan, Männedorf, Switzerland). The complete medium with 1.0% DMSO (no inhibitor) was used as a control in accordance with the reaction containing 1.0% DMSO of all wells.
# [4] = MTT cytotoxicity assay on Vero cells; settings: monkey, Vero cells (normal kidney epithelial cell line), IC50, cytotoxic effect on Vero cell viability
# Experimental: as §1, §2
# [5] = in vitro; settings: monkey, IC50, cytotoxic effect on Vero cell viability
# Experimental: as §1, §2
# [6] = enzyme-based assay, mean ± SEM, triplicate, read-out: IC50, kinase inhibitory activity against EGFR (L858R/T790M/C797S)
# [7] = Homo sapiens, NCI-H1975, MTT, 72 h
# Sequence of EGFR (L858R/T790M/C797S) TK (P00533 25-1210 T790M/C797S/L858R): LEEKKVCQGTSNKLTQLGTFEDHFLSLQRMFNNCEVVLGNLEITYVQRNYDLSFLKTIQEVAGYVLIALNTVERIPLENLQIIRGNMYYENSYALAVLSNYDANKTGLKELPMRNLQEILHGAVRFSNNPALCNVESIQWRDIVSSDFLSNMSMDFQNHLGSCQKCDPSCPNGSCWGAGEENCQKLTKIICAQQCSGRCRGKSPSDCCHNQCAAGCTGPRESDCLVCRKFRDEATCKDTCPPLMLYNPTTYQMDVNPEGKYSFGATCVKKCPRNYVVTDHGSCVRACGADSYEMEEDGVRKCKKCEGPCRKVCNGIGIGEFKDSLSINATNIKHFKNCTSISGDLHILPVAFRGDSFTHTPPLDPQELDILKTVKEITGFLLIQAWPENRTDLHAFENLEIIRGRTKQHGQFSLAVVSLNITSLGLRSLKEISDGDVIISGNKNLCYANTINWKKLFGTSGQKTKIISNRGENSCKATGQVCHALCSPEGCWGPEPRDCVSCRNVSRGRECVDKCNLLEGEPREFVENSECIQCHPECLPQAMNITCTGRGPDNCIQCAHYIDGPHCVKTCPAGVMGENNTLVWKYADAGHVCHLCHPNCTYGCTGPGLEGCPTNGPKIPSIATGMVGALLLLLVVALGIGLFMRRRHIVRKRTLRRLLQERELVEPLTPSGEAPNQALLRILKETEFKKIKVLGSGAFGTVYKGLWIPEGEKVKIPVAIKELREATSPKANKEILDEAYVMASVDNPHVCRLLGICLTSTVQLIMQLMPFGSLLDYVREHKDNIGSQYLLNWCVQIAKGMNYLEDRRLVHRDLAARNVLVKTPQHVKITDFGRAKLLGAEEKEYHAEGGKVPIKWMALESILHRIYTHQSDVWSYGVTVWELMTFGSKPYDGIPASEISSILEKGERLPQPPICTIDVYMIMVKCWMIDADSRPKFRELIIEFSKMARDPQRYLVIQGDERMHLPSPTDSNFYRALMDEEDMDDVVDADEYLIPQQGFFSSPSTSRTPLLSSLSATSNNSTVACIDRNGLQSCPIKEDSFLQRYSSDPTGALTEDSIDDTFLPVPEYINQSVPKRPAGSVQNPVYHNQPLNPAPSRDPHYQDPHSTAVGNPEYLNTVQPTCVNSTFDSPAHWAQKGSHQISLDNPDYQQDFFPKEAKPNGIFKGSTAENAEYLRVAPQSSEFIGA
SMILES,"IC50 [1, 6] [µM]",IC50 [1] [µM],"IC50 ([2]; MTT, 72 h) [µM]",IC50 [3] [µM],IC50 at 72 h [4] [µM],"IC50 [2, 7] [µM]","IC50 ([2]; Homo sapiens, NCI-H1975, 72 h) [µM]",IC50 at 72 h [5] [µM]
CCn1c(=O)c(-n2cnc3ccccc32)nc2ccccc21 [CPD15],,0.0065 ± 0.00302,31.2 ± 3.4,> 50,> 100,,,
O=c1[nH]c2ccccc2nc1OCc1ccccc1 [CPD16],0.0105 ± 0.0011,,,,> 100,79.4 ± 4.35,,
"C=CC(=O)Nc1cc(Nc2nccc(-c3cn(C)c4ccccc34)n2)c(OC)cc1N(C)CCN(C)C [Osimertinib, reference compound]",,,,,,,18.3 ± 2.02,> 100

# Continued, in another order:
"IC50 [1, 6] [µM]",SMILES,IC50 [1] [µM],"IC50 ([2]; MTT, 72 h) [µM]",IC50 [3] [µM],IC50 at 72 h [4] [µM],"IC50 [2, 7] [µM]","IC50 ([2]; Homo sapiens, NCI-H1975, 72 h) [µM]",IC50 at 72 h [5] [µM]
0.00381 ± 0.0018,"CCOc1nc2ccccc2n(Cc2ccccc2)c1=O [CPD21, 1-Benzyl-3-ethoxyquinoxalin-2(1H)-one]",,,,> 100,44.7 ± 2.34,,
0.00304 ± 0.00124,O=c1c(-n2cncn2)nc2ccccc2n1Cc1ccccc1 [CPD4],,,,> 20,3.47 ± 2.2,,
